Assay results published in patent US20160185797A1, “ALKYNYL ALCOHOLS AND METHODS OF USE” (Genentech, Inc., priority 2013, published 2016).

Columns and labels:
[1] = tested on: REL-A (p65) nuclear translocation in HeLa cells; experiment: REL-A (p65) nuclear translocation assay in HeLa cells, TNF-α stimulated (classical NF-kB signaling), high content imaging; assay type: cell-based; conditions: Homo sapiens, HeLa, compound 4.5 h, then 10 ng/mL TNF-α for 30 minutes, read-out: REL-A HeLa Transloc Assay (IC50)
Outline: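 HeLa cells in medium with 10% fetal bovine serum were exposed to compounds (0.2% DMSO final) for 4.5 hours, then stimulated with 10 ng/mL TNF-α for 30 minutes. After fixation in 4% paraformaldehyde and permeabilization with 0.1% Triton X-100, cells were stained with 400 ng/mL anti-REL-A (p65) antibody, an Alexa488 secondary and DRAQ5. Opera imaging quantified the nuclear-to-cytoplasmic signal ratio to give IC50.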

[2] = biological target: T1, nuclear factor-kappa B (NF-kB)-inducing kinase (NIK) (Homo sapiens, UniProt Q99558); experiment: NIK enzyme inhibition assay (Transcreener ADP fluorescence polarization, NIK ADP-FP); assay type: biochemical
T1 construct: made in house; host or cells: baculovirus-infected insect cells

[3] = tested on: p52 (NF-kB2) nuclear translocation in HeLa cells; experiment: p52 (NF-kB2) nuclear translocation assay in HeLa cells, anti-lymphotoxin beta receptor antibody stimulated (non-classical NF-kB signaling), high content imaging; assay type: cell-based; conditions: Homo sapiens, 100 ng/mL anti-lymphotoxin beta receptor antibody for 5 hours, read-out: p52 HeLa Transloc Assay (IC50)
Outline: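 HeLa cells in 10% FBS medium were treated with compound (0.2% DMSO final) and stimulated with 100 ng/mL anti-lymphotoxin beta receptor antibody for 5 h. Fixed cells were immunostained for p52 and imaged with DRAQ5 nuclear stain. Translocation is the nuclear to cytoplasmic intensity ratio, […].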

T1 sequence (Q99558 whole entry): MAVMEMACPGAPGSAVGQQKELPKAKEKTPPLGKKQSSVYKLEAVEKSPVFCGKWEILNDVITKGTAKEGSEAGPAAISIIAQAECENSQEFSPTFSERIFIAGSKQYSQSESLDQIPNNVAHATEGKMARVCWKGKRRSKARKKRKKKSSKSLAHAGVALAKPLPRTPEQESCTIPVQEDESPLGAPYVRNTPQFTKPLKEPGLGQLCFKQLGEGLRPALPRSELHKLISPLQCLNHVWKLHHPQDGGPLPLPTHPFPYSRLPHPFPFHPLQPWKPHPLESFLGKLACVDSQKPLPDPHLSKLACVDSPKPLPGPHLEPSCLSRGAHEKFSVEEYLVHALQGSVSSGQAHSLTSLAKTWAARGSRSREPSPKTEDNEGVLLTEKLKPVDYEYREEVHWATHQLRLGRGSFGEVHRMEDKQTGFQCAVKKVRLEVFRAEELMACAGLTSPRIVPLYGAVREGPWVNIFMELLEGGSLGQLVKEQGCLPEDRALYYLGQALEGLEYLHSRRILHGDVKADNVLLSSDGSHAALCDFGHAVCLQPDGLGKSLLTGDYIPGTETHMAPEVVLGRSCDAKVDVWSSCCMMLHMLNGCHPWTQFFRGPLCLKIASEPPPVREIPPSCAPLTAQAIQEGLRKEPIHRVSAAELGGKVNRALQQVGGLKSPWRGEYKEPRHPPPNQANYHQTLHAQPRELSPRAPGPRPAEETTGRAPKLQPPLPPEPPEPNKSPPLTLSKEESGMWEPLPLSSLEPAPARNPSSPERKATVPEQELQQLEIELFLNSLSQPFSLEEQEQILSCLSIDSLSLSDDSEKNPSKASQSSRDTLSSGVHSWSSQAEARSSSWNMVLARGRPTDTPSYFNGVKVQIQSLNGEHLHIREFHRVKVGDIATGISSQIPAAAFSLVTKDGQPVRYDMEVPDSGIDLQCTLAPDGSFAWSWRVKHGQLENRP

SMILES	IC50 [1] [nM]	Ki [2] [nM]	IC50 [3] [nM]
CN1CC[C@@](O)(C#Cc2cccc(-c3cc4c(C(F)(F)F)c[nH]c4c(C(N)=O)n3)c2)C1=O [Example 159, 5-[3-[2-[(3R)-3-hydroxy-l-methyl-2-oxo-pyrrolidin-3-yl]ethynyl]phenyl]-3-(trifluoromethyl)-1H-pyrrolo [2,3-c]pyridine-7-carboxamide]	> 2000	< 0.05	73
CN1CC[C@@](O)(C#Cc2cccc(-c3nc(C(N)=O)c(N)n4ccnc34)c2)C1=O [Example 112, 5-amino-8-[3-[2-[(3R)-3-hydroxy-1-methyl-2-oxo-pyrrolidin-3-yl]ethynyl]phenyl]imidazo[1,2-a] pyrazine-6-carboxamide]	≥ 20000	0.05	88.8
COc1cc(-c2cccc(C#C[C@]3(O)CCN(C)C3=O)c2)nc(C(N)=O)n1 [Example 136, 4-[3-[2-[(3R)-3-hydroxy-1-methyl-2-oxo-pyrrolidin-3-yl]ethynyl]phenyl]-6-methoxy-pyrimidine-2-carboxamide]	≥ 2000	0.5	152
CN1CC[C@@](O)(C#Cc2cccc(-c3nc(C(N)=O)cc(N4CCOCC4)n3)c2)C1=O [Example 2, 2-[3-[2-[(3R)-3-hydroxy-1-methyl-2-oxo-pyrrolidin-3-yl]ethynyl]phenyl]-6-morpholino-pyrimidine-4-carboxamide]	> 20000	1.73	101
CN1CC[C@@](O)(C#Cc2cccc(-c3nc(C(N)=O)c(NC[C@@H]4CCO4)cc3F)c2)C1=O [Example 81, 5-fluoro-6-[3-[2-[(3R)-3-hydroxy-1-methyl-2-oxo-pyrrolidin-3-yl]ethynyl]phenyl]-3-[[(2S)-oxetan-2-yl]methylamino] pyridine-2-carboxamide]	≥ 2000	0.05	50.8
CN1CC[C@@](O)(C#Cc2cccc(-c3nc(C(N)=O)cc4c3CCC4)c2)C1=O [Example 46, 1-(3-[2-[(3R)-3-hydroxy-1-methyl-2-oxopyrrolidin-3-yl]ethynyl]phenyl)-5H,6H,7H-cyclopenta[c] pyridine-3-carboxamide]	> 20000	0.62	103
CN1CC[C@@](O)(C#Cc2cccc(-c3nc(C(N)=O)cc(N(C)C)n3)c2)C1=O [Example 6, 6-(dimethylamino)-2-[3-[2-[(3R)-3-hydroxy-1-methyl-2-oxo-pyrrolidin-3-yl]ethynyl]phenyl] pyrimidine-4-carboxamide]	> 20000	0.83	108
CCNc1ccc(-c2ccc(C#N)c(C#C[C@]3(O)CCN(C)C3=O)c2)nc1C(N)=O [Example 119, 6-[4-cyano-3-[2-[(3R)-3-hydroxy-1-methyl-2-oxo-pyrrolidin-3-yl]ethynyl]phenyl]-3-(ethylamino) pyridine-2-carboxamide]	≥ 2000	0.1	108
COC[C@@H](C)Nc1ccc(-c2cc(C#C[C@]3(O)CCN(C)C3=O)ccc2F)nc1C(N)=O [Example 148, 6-[2-fluoro-5-[2-[(3R)-3-hydroxy-1-methyl-2-oxo-pyrrolidin-3-yl]ethynyl]phenyl]-3-[[(1R)-2-methoxy-1-methyl-ethyl]amino] pyridine-2-carboxamide]	≥ 2000	0.19	52.4
Cc1nc([C@](C)(O)C#Cc2cccc(-c3nc(C(N)=O)c(N)cc3F)c2)no1 [Example 132, 3-amino-5-fluoro-6-[3-[(3R)-3-hydroxy-3-(5-methyl-1,2,4-oxadiazol-3-yl)but-1-ynyl]phenyl]pyridine-2-carboxamide]	≥ 2000	8.75	≥ 2000
COCCNc1ccc(-c2cccc(C#C[C@]3(O)CCN(C)C3=O)c2)nc1C(N)=O [Example 128, 6-[3-[2-[(3R)-3-hydroxy-1-methyl-2-oxo-pyrrolidin-3-yl]ethynyl]phenyl]-3-(2-methoxyethylamino) pyridine-2-carboxamide]	≥ 2000	0.05	27.2
CN1CC[C@@](O)(C#Cc2cccc(-c3nc(C(N)=O)c(N)c(-n4cccn4)n3)c2)C1=O [Example 72, 5-amino-2-[3-[2-[(3R)-3-hydroxy-1-methyl-2-oxo-pyrrolidin-3-yl]ethynyl]phenyl]-6-pyrazol-1-yl-pyrimidine-4-carboxamide]	6320	0.05	6.43
CN1CC[C@@](O)(C#Cc2cccc(-c3nc(C(N)=O)cc(-n4ccnc4)n3)c2)C1=O [Example 70, 2-[3-[2-[(3R)-3-hydroxy-1-methyl-2-oxo-pyrrolidin-3-yl]ethynyl]phenyl]-6-imidazol-1-yl-pyrimidine-4-carboxamide]	≥ 20000	0.94	79
CN1CC[C@@](O)(C#Cc2cccc(-c3cc(-c4cnccn4)cc(C(N)=O)n3)c2)C1=O [Example 127, 6-[3-[2-[(3R)-3-hydroxy-1-methyl-2-oxo-pyrrolidin-3-yl]ethynyl]phenyl]-4-pyrazin-2-yl-pyridine-2-carboxamide]	≥ 2000	0.08	183
CN1CC[C@@](O)(C#Cc2cc(F)cc(-c3nc(C(N)=O)c(N)cc3F)c2)C1=O [Example 167, 3-amino-5-fluoro-6-[3-fluoro-5-[2-[(3R)-3-hydroxy-1-methyl-2-oxo-pyrrolidin-3-yl]ethynyl]phenyl]pyridine-2-carboxamide]	> 2000	< 0.05	85
CN1CC[C@@](O)(C#Cc2cccc(-c3nc(C(N)=O)cc(-c4ccn[nH]4)n3)c2)C1=O [Example 69, 2-[3-[2-[(3R)-3-hydroxy-1-methyl-2-oxo-pyrrolidin-3-yl]ethynyl]phenyl]-6-(1H-pyrazol-5-yl)pyrimidine-4-carboxamide]	≥ 20000	0.6	206
CN1CC[C@@](O)(C#Cc2cccc(-c3cc(N4CCCC4=O)cc(C(N)=O)n3)c2)C1=O [Example 174, 6-[3-[2-[(3R)-3-hydroxy-1-methyl-2-oxo-pyrrolidin-3-yl]ethynyl]phenyl]-4-(2-oxopyrrolidin-1-yl)pyridine-2-carboxamide]	> 2000	0.53	449
CN1CC[C@@](O)(C#Cc2cccc(-c3cnc(N)c(C(N)=O)n3)c2)C1=O [Example 62, 3-amino-6-[3-[2-[(3R)-3-hydroxy-1-methyl-2-oxo-pyrrolidin-3-yl]ethynyl]phenyl] pyrazine-2-carboxamide]	1000	0.11	11.5
CN1CC[C@@](O)(C#Cc2cccc(-c3cc(C(F)(F)F)cc(C(N)=O)n3)c2)C1=O [Example 135, 6-[3-[2-[(3R)-3-hydroxy-1-methyl-2-oxo-pyrrolidin-3-yl]ethynyl]phenyl]-4-(trifluoromethyl) pyridine-2-carboxamide]	≥ 2000	0.53	147
CN1CC[C@@](O)(C#Cc2cccc(-c3nc(C(N)=O)c4ccccc4n3)c2)C1=O [Example 4, 2-[3-[2-[(3R)-3-hydroxy-1-methyl-2-oxo-pyrrolidin-3-yl]ethynyl]phenyl]quinazoline-4-carboxamide]	> 20000	0.05	31.9
CN1CC[C@@](O)(C#Cc2cccc(-c3nc(N)cc(C(N)=O)n3)c2)C1=O [Example 14, 6-amino-2-[3-[2-[(3R)-3-hydroxy-1-methyl-2-oxo-pyrrolidin-3-yl]ethynyl]phenyl]pyrimidine-4-carboxamide]	> 20000	0.38	665
Cc1nccn1-c1cc(C(N)=O)nc(-c2cccc(C#C[C@]3(O)CCN(C)C3=O)c2)n1 [Example 141, 2-[3-[2-[(3R)-3-hydroxy-1-methyl-2-oxo-pyrrolidin-3-yl]ethynyl]phenyl]-6-(2-methylimidazol-1-yl) pyrimidine-4-carboxamide]	≥ 20000	0.37	328
CN1CC[C@@](O)(C#Cc2cccc(-c3nc(C(N)=O)cc(N4CCCC4)n3)c2)C1=O [Example 5, 2-[3-[2-[(3R)-3-hydroxy-1-methyl-2-oxo-pyrrolidin-3-yl]ethynyl]phenyl]-6-pyrrolidin-1-yl-pyrimidine-4-carboxamide]	> 20000	0.8	122
Cc1cnc2c(-c3cccc(C#C[C@]4(O)CCN(C)C4=O)c3)nc(C(N)=O)cn12 [Example 75, 8-[3-[2-[(3R)-3-hydroxy-1-methyl-2-oxo-pyrrolidin-3-yl]ethynyl]phenyl]-3-methyl-imidazo[1,2-a]pyrazine-6-carboxamide]	≥ 20000	0.38	66.8
CN1CC[C@@](O)(C#Cc2cccc(-c3nc(C(N)=O)cc(N4CC[C@H]4c4cccs4)n3)c2)C1=O [Example 27, 2-[3-[2-[(3R)-3-hydroxy-1-methyl-2-oxo-pyrrolidin-3-yl]ethynyl]phenyl]-6-[(2S)-2-(2-thienyl)azetidin-1-yl]pyrimidine-4-carboxamide]	> 20000	3.34	87.2
CN1CC[C@@](O)(C#Cc2cccc(-c3ncc(NC4COC4)c(C(N)=O)n3)c2)C1=O [Example 88, 2-[3-[2-[(3R)-3-hydroxy-1-methyl-2-oxo-pyrrolidin-3-yl]ethynyl]phenyl]-5-(oxetan-3-ylamino) pyrimidine-4-carboxamide]	≥ 20000	0.05	2.12
